These results are taken from patent publication US20030166601A1, “Novel colloid synthetic vectors for gene therapy” (priority 1999, published 2003).

Test [1] deals with CD-1 mice. In words: Luciferase expression in organs after intravenous injection of pCILuc complexes. Type of test: in vivo. Conditions: for Luciferase RLU/20 ul lysate heart / Luciferase RLU/20 ul lysate kidney / Luciferase RLU/20 ul lysate liver / Luciferase RLU/20 ul lysate lung / Luciferase RLU/20 ul lysate spleen / Luciferase RLU/20 μl lysate heart / Luciferase RLU/20 μl lysate kidney / Luciferase RLU/20 μl lysate liver / Luciferase RLU/20 μl lysate lung / Luciferase RLU/20 μl lysate spleen: 40 μg pCILuc i.v., 5 h. As to the method:
Substituted aminoethanols (cationic compounds) were prepared as described in Examples 1-34. Their gene delivery ability was studied in vivo by intravenous injection (Table 1 and 2) using a standard method. The preparations were administered via tail vein injection to mice and gene expression determined after 5 hours. Female CD-1 mice, 13-15 g, were purchased from Charles River Inc. Forty microgram of pCILuc complexed with GC lipids or GC lipid:Chol dispersion as indicated weight ratios. After 5 h, mice were sacrificed and organs were collected. Organs were homogenized in 0.5 ml of lysis buffer and 20 μl of supernatant was used for luciferase assay. Luciferase activity was represented as a mean of relative light unit (RLU) of four mice. The lipids were either used alone or combined with cholesterol and complexed with a luciferase reporter gene plasmid by a standard procedure at a range of weight and charge ratios. For the in vivo screen, 40 μg of pCILuc was complexed with the formulation and injected into the mice.
All compounds were evaluated for in vivo activity. Two critical factors were examined, formulation with or without cholesterol and the ratio of cationic lipid to DNA. Cholesterol was tested at 1:1 mole ratio of lipid:chol. The studies were performed with a dose of 40 μg of pCILuc complexed with cationic lipid or lipid: Chol (1:1 mole ratio) injected i.v. into CD-1 mice and then luciferase activity in different organs determined 5 h later. The first evaluation included all of 14 GC-lipids at weight ratios of 2 and 10 (GC lipid to DNA). It was performed by four separated experiments. Each time cationic liposome DOTAP:Chol was used as a standard control.
Measurements were repeated with lipids GC-030, GC-034 and GC-029 at wider weight ratios than the first experiment. Luciferase activity is represented as a mean of relative light unit (RLU) of four mice. WR means weight ratio of GC lipids to DNA. The transfection activity was represented by luciferase activity RLU/organ. […] The transfection activity increased with the increased weight ratio (GC lipids to DNA). Inclusion of cholesterol can change the biodistribution of gene expression in the different organs examined. […] However this function of cholesterol was not seen with GC-034.

Test [2] deals with cultured cells. The experiment in a line: Transfection of cultured cells, luciferase activity. Type of test: cell-based. The text has this:
The gene delivery ability of substituted aminoethanols with long chain hydrocarbon (aliphatic) substitutients was studied by transfection of cultured cells and then in vivo by intravenous injection (Table 2 and 3). The substituted aminoethanols have two hydrophilic polar heads connected with one hydrophobic body, which was named bihead lipids. Bihead lipids are proposed to form a monolayer membrane.

Regarding `CCCCCCCCCCCCCCC(O)CN(CCCN)CCCCCCCCCCCCCN(CCCN)CC(O)CCCCCCCCCCCCCC` (stereo not drawn) [CGP44015A], the “Luciferase RLU/20 ul lysate heart” value was found to be 74 RLU/20 ul lysate in test [1] (CR 0.5); 73 RLU/20 ul lysate in test [1] (CR 1); 379 RLU/20 ul lysate in test [1] (CR 4); 103 RLU/20 ul lysate in test [1] (CR 10); 75 RLU/20 ul lysate in test [1] (CR 20). Further, the “Luciferase RLU/20 ul lysate kidney” value in test [1] (CR 0.5) turned out to be 72 RLU/20 ul lysate; in test [1] (CR 1) it was 71 RLU/20 ul lysate; in test [1] (CR 4) it was 528 RLU/20 ul lysate; in test [1] (CR 10), 281 RLU/20 ul lysate; in test [1] (CR 20) it was 70 RLU/20 ul lysate. The “Luciferase RLU/20 ul lysate liver” value was 86 RLU/20 ul lysate in test [1] (CR 0.5); 219 RLU/20 ul lysate in test [1] (CR 1); 3,817 RLU/20 ul lysate in test [1] (CR 4); 1,283 RLU/20 ul lysate in test [1] (CR 10); 243 RLU/20 ul lysate in test [1] (CR 20). Further, the “Luciferase RLU/20 ul lysate lung” value in test [1] (CR 0.5) was 82 RLU/20 ul lysate; in test [1] (CR 1) it was 95 RLU/20 ul lysate; in test [1] (CR 4), 19,717 RLU/20 ul lysate; in test [1] (CR 10), 4,470 RLU/20 ul lysate; in test [1] (CR 20), 84 RLU/20 ul lysate. Moreover, the “Luciferase RLU/20 ul lysate spleen” value in test [1] (CR 0.5) was 80 RLU/20 ul lysate; in test [1] (CR 1), 168 RLU/20 ul lysate; in test [1] (CR 4) it was 4,778 RLU/20 ul lysate; in test [1] (CR 10) it was 4,108 RLU/20 ul lysate; in test [1] (CR 20) it was 69 RLU/20 ul lysate. Besides, the “expression in vivo by core complexes” value in test [1] (mouse, in vivo) is listed as “exhibit expression in vivo”. In addition, the “Luciferase activity Ave. RLU × 10000/well FBS(+)” value in test [2] (charge ratio (+/−) 0.5) is reported as 130 RLU × 10000/well; in test [2] (charge ratio (+/−) 1) it was 3,373 RLU × 10000/well; in test [2] (charge ratio (+/−) 2) it was 17,315 RLU × 10000/well; in test [2] (charge ratio (+/−) 4) it was 25,732 RLU × 10000/well; in test [2] (charge ratio (+/−) 6) it was 27,844 RLU × 10000/well; in test [2] (charge ratio (+/−) 8), 27,298 RLU × 10000/well. Besides, the “Luciferase activity Ave. RLU × 10000/well FBS(−)” value was 159 RLU × 10000/well in test [2] (charge ratio (+/−) 0.5); 3,252 RLU × 10000/well in test [2] (charge ratio (+/−) 1); 17,063 RLU × 10000/well in test [2] (charge ratio (+/−) 2); 24,484 RLU × 10000/well in test [2] (charge ratio (+/−) 4); 24,089 RLU × 10000/well in test [2] (charge ratio (+/−) 6); 24,150 RLU × 10000/well in test [2] (charge ratio (+/−) 8).
Consider `CCCCCCCCCCCCCCC(O)CN(CCN)CCCCCCCCNCCCN` (stereo not drawn) [CGP44207A], for which the “Luciferase activity Ave. RLU × 10000/well FBS(+)” value in test [2] (charge ratio (+/−) 0.5) was 12 RLU × 10000/well; in test [2] (charge ratio (+/−) 1) it was 9 RLU × 10000/well; in test [2] (charge ratio (+/−) 2), 12 RLU × 10000/well; in test [2] (charge ratio (+/−) 4) it was 22 RLU × 10000/well; in test [2] (charge ratio (+/−) 6), 15 RLU × 10000/well; in test [2] (charge ratio (+/−) 8), 13 RLU × 10000/well. In addition, the “Luciferase activity Ave. RLU × 10000/well FBS(−)” value in test [2] (charge ratio (+/−) 0.5) was 12 RLU × 10000/well; in test [2] (charge ratio (+/−) 1) it was 11 RLU × 10000/well; in test [2] (charge ratio (+/−) 2), 15 RLU × 10000/well; in test [2] (charge ratio (+/−) 4) it was 28 RLU × 10000/well; in test [2] (charge ratio (+/−) 6) it was 22 RLU × 10000/well; in test [2] (charge ratio (+/−) 8), 17 RLU × 10000/well.
Take `CCCCCCCCCCCCCCCCCCN(CCCCCCCCCCCCCCCCCC)C(=O)[C@H](CCC(=O)NCCN(CCNC(=O)CC[C@H](NC(=O)[C@H](CCCNCCCN)NCCCN)C(=O)N(CCCCCCCCCCCCCCCCCC)CCCCCCCCCCCCCCCCCC)CCNC(=O)CC[C@H](NC(=O)[C@H](CCCNCCCN)NCCCN)C(=O)N(CCCCCCCCCCCCCCCCCC)CCCCCCCCCCCCCCCCCC)NC(=O)[C@H](CCCNCCCN)NCCCN.O=C(O)C(F)(F)F.O=C(O)C(F)(F)F.O=C(O)C(F)(F)F.O=C(O)C(F)(F)F.O=C(O)C(F)(F)F.O=C(O)C(F)(F)F.O=C(O)C(F)(F)F.O=C(O)C(F)(F)F.O=C(O)C(F)(F)F.O=C(O)C(F)(F)F.O=C(O)C(F)(F)F.O=C(O)C(F)(F)F.O=C(O)C(F)(F)F` [GC-071]: in test [1] (WR 2), the “Luciferase RLU/20 μl lysate heart” value was determined as 60 RLU/20 μl lysate, the “Luciferase RLU/20 μl lysate kidney” value was determined as 58 RLU/20 μl lysate, the “Luciferase RLU/20 μl lysate liver” value worked out at 59 RLU/20 μl lysate and the “Luciferase RLU/20 μl lysate lung” value stood at 56 RLU/20 μl lysate. In test [1] (WR 10), the “Luciferase RLU/20 μl lysate heart” value came out at 61 RLU/20 μl lysate, the “Luciferase RLU/20 μl lysate kidney” value was 67 RLU/20 μl lysate, the “Luciferase RLU/20 μl lysate liver” value is on record as 531 RLU/20 μl lysate and the “Luciferase RLU/20 μl lysate lung” value was 73 RLU/20 μl lysate. Besides, in test [1] (WR 10), the “Luciferase RLU/20 μl lysate spleen” value worked out at 286 RLU/20 μl lysate. Besides, the “Luciferase RLU/20 μl lysate spleen” value in test [1] (WR (lipid to DNA) 2) is on record as 61 RLU/20 μl lysate.
